Patent publication US20050112573A1, “Method of detecting toxic substance” (priority 2001, published 2005)

Tested on: yeast genes (level of expressed mRNA)
Assay: DNA chip analysis of expressed mRNA of yeast genes after 2 h culture with a toxic chemical substance
Type: cell-based, Saccharomyces cerevisiae S288C
Procedure: Yeast (Saccharomyces cerevtisiae S288C (α SUC2mal mel gap2 CUP1)) were cultured at 25° C. on YPD medium (yeast extract 1%, polypepton 2%, glucose 2%). One of toxic chemical substances was added to the cell at logarithmic growth phase, and the cell was further cultured for two hours. Cell was cultured without any chemical substance in the same condition, and was used as control. Concentrations of the chemical substances were defined to inhibit the growth of the yeast but not lead to death.
After the completion of cultivation, the culture was centrifuged to collect the cells. To the cells, sodium acetate buffer (50 mM sodium acetate, 10 mM EDTA, 1% SDS) was added, and the mixture was shaken at 65° C. for five minutes, followed by returning to room temperature, and obtaining the supernatant, which procedure was repeated two times. To the supernatant, ½ amount of a solution of phenol/chloroform was added, and the mixture was centrifuged to give a supernatant, which was added with an equal amount of chloroform, and the mixture was centrifuged to give a supernatant. To the supernatant, an equal amount of isopropanol containing 0.3 M sodium acetate was added, and the mixture was allowed to stand at room temperature for 30 minutes, after which the mixture was centrifuged to give a sediment of the whole RNAs. Seventy % ethanol was added to the sediment, and the mixture was again centrifuged to give a sediment, which was then dried and dissolved in water. mRNA was isolated from the whole RNAs as followings. In view of the fact that a poly A chain is attached to the 3′ terminus of mRNA, a polynucleotide having a poly T structure which was immobilized on the surface of latex beads was used to trap the mRNA, and then the mRNA was washed and eluted with spine column (Oligotex-dT30<Super>mRNA Purification Kit, Takara). Reverse transcription of the mRNA was conducted with a reverse transcriptase (Super Script II Reverse Transcriptase; catalogue No. 18064-014, GibcoBRL) using fluorescence-labeled nucleotides to give cDNAs that were introduced with Cy3-dUTP or Cy5-dUTP during the reverse transcription.
The labeled cDNAs were dissolved in TE buffer (10 mM Tris-HCl/1 mM EDTA, pH8.0), and the solution was dropped on the DNA chip containing the whole genes of yeast (DNA Chip Research Inc. Japan) so that the cDNAs were hybridized on the DNA chip at 65° C. for over 12 hours. The fluoresces intensity of the DNA chip was read with a scanner, and the ratio relative to the fluorescence intensity resulting from the absence of chemical substance was estimated as the following, which is shown in Tables 1 to 9: [formula]
In the Tables, “Intensity” indicated in the rightmost column is a value of the level of expressed mRNA of each gene in control cells as divided by the average level of the expressions of the whole genes.

S=C([S-])NCCNC(=S)[S-].[Zn+2] [(11), zinc N,N′-ethylenebis(dithiocarbamate)]
1.9: level of expressed mRNA in the presence of chemical substance/in its absence (gene YIL167W) | The level of expressed mRNA in the presence of chemical substance/absence: YJR044C (gene YJR044C) | level of expressed mRNA in the presence of chemical substance/in its absence (gene YKR039W)
1.1: The level of expressed mRNA in the presence of chemical substance/absence: YIL165C (gene YIL165C) | The level of expressed mRNA in the presence of chemical substance/absence: YML013W (gene YML013W)
2.3: level of expressed mRNA in the presence of chemical substance/in its absence (gene YJL196C) | The level of expressed mRNA in the presence of chemical substance/absence: YKL090W (gene YKL090W)
1.4: The level of expressed mRNA in the presence of chemical substance/absence: YHL021C (gene YHL021C) | The level of expressed mRNA in the presence of chemical substance/absence: YHR180W (gene YHR180W) | The level of expressed mRNA in the presence of chemical substance/absence: YJL017W (gene YJL017W) | level of expressed mRNA in the presence of chemical substance/in its absence (gene YJL132W) | level of expressed mRNA in the presence of chemical substance/in its absence (gene YLR273C) | The level of expressed mRNA in the presence of chemical substance/absence: YLR392C (gene YLR392C)
0.8: The level of expressed mRNA in the presence of chemical substance/absence: YJR030C (gene YJR030C) | The level of expressed mRNA in the presence of chemical substance/absence: YKR040C (gene YKR040C) | The level of expressed mRNA in the presence of chemical substance/absence: YLR226W (gene YLR226W) | level of expressed mRNA in the presence of chemical substance/in its absence (gene YLR307W) | The level of expressed mRNA in the presence of chemical substance/absence: YLR415C (gene YLR415C) | The level of expressed mRNA in the presence of chemical substance/absence: YLR427W (gene YLR427W)
3.8: level of expressed mRNA in the presence of chemical substance/in its absence (gene YLR142W)
1.5: level of expressed mRNA in the presence of chemical substance/in its absence (gene YGR282C) | level of expressed mRNA in the presence of chemical substance/in its absence (gene YHR092C) | The level of expressed mRNA in the presence of chemical substance/absence: YJL049W (gene YJL049W) | The level of expressed mRNA in the presence of chemical substance/absence: YJL097W (gene YJL097W)
1.6: The level of expressed mRNA in the presence of chemical substance/absence: YJL037W (gene YJL037W) | The level of expressed mRNA in the presence of chemical substance/absence: YKL100C (gene YKL100C) | The level of expressed mRNA in the presence of chemical substance/absence: YLR339C (gene YLR339C)
0.6: The level of expressed mRNA in the presence of chemical substance/absence: YGR293C (gene YGR293C) | level of expressed mRNA in the presence of chemical substance/in its absence (gene YHR137W) | level of expressed mRNA in the presence of chemical substance/in its absence (gene YJR148W) | The level of expressed mRNA in the presence of chemical substance/absence: YKL097C (gene YKL097C)
1.7: level of expressed mRNA in the presence of chemical substance/in its absence (gene YHR037W) | The level of expressed mRNA in the presence of chemical substance/absence: YLR097C (gene YLR097C) | level of expressed mRNA in the presence of chemical substance/in its absence (gene YLR180W)
2.2: level of expressed mRNA in the presence of chemical substance/in its absence (gene YJR159W)
0.7: The level of expressed mRNA in the presence of chemical substance/absence: YHL006C (gene YHL006C) | The level of expressed mRNA in the presence of chemical substance/absence: YHR105W (gene YHR105W) | The level of expressed mRNA in the presence of chemical substance/absence: YHR134W (gene YHR134W)
1.0: The level of expressed mRNA in the presence of chemical substance/absence: YHL037C (gene YHL037C) | level of expressed mRNA in the presence of chemical substance/in its absence (gene YLR300W)
1.8: level of expressed mRNA in the presence of chemical substance/in its absence (gene YIL033C) | The level of expressed mRNA in the presence of chemical substance/absence: YJL032W (gene YJL032W) | The level of expressed mRNA in the presence of chemical substance/absence: YKL051W (gene YKL051W) | level of expressed mRNA in the presence of chemical substance/in its absence (gene YKL067W)
1.2: The level of expressed mRNA in the presence of chemical substance/absence: YIL108W (gene YIL108W) | level of expressed mRNA in the presence of chemical substance/in its absence (gene YIL154C)
0.9: The level of expressed mRNA in the presence of chemical substance/absence: YIL127C (gene YIL127C) | level of expressed mRNA in the presence of chemical substance/in its absence (gene YJL088W) | level of expressed mRNA in the presence of chemical substance/in its absence (gene YJR142W) | The level of expressed mRNA in the presence of chemical substance/absence: YKL059C (gene YKL059C) | The level of expressed mRNA in the presence of chemical substance/absence: YLR338W (gene YLR338W)
1.3: The level of expressed mRNA in the presence of chemical substance/absence: YHR083W (gene YHR083W) | The level of expressed mRNA in the presence of chemical substance/absence: YHR095W (gene YHR095W) | The level of expressed mRNA in the presence of chemical substance/absence: YHR181W (gene YHR181W) | level of expressed mRNA in the presence of chemical substance/in its absence (gene YHR190W) | level of expressed mRNA in the presence of chemical substance/in its absence (gene YIR035C) | The level of expressed mRNA in the presence of chemical substance/absence: YKL094W (gene YKL094W)
